Assay results reported in ChEMBL document CHEMBL1201862, “PubChem BioAssay data set” (2004).
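These data come from cells grown in 96-well plates and exposed to compound for 48 hours at five concentrations. Abbreviation: GI50, concentration required for 50% inhibition of growth.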 Calls of active or inactive are those of the source. Rule as the data show it: active = GI50 up to about 1.1 µM and inactive = higher.

Experiments:
Assay in all cases: DTP human tumour cell line panel, 48 h
[1] = system: TK-10
[2] = system: COLO 205
[3] = system: Malme-3M
[4] = system: HOP-62
[5] = system: UO-31
[6] = system: DU-145
[7] = system: SNB-19
[8] = system: K562
[9] = system: SK-OV-3
[10] = system: SN12C
[11] = system: U-251
[12] = system: OVCAR-8
[13] = system: CAKI-1
[14] = system: MOLT-4
[15] = system: EKVX
[16] = system: UACC-257
[17] = system: NCI-H23
[18] = system: KM12
[19] = system: NCI-H522
[20] = system: SW-620

Measured: GI50

CC(=O)O[C@H]1C(=O)N(c2cc3c4ccccc4ccc3c3ccccc23)[C@@H]1c1ccccc1
inactive: [1] 12.8 µM | [2] 4.24 µM | [3] 5.38 µM | [4] 5.16 µM | [5] 11.2 µM | [6] 14.5 µM | [7] 6.79 µM | [8] 4.8 µM | [9] 4.74 µM | [10] 11 µM | [11] 7.33 µM | [12] 3.97 µM | [13] 4.62 µM | [14] 7.69 µM | [15] 14.6 µM | [16] 4.09 µM | [17] 5.51 µM | [18] 2.9 µM

Cc1nc2ccc(F)cc2c(Cl)c1CCCl
inactive: [1] 62.8 µM | [2] 20 µM | [3] 31.6 µM | [4] 84.9 µM | [5] 73.1 µM | [6] 44.8 µM | [19] 31.5 µM | [7] 36.4 µM | [8] 25.8 µM | [11] 30.4 µM | [12] 49.3 µM | [14] 21.3 µM | [15] 13.9 µM | [16] 39 µM | [17] 42.3 µM | [18] 28.1 µM | [20] 39.5 µM

CCOC(=O)NC1C2CC(=O)OC(O2)C1OC(C)=O (configuration not stated)
inactive: [1] > 100 µM | [2] > 100 µM | [3] > 100 µM | [4] > 100 µM | [5] 60.7 µM | [19] > 100 µM | [7] > 100 µM | [8] > 100 µM | [9] > 100 µM | [10] 99.3 µM | [11] > 100 µM | [12] > 100 µM | [13] > 100 µM | [14] > 100 µM | [15] > 100 µM | [16] > 100 µM | [17] > 100 µM | [18] > 100 µM | [20] > 100 µM

Cc1c2nc3ccccc3sc-2cc(=O)c1C
inactive: [1] > 100 µM | [2] 34.7 µM | [3] 46.5 µM | [4] > 100 µM | [5] 36 µM | [19] > 57.3 µM | [7] > 100 µM | [8] 24.3 µM | [9] > 100 µM | [10] > 10 µM | [11] 47.5 µM | [12] 49.7 µM | [13] 55 µM | [14] 34.5 µM | [15] > 80.4 µM | [16] 10.3 µM | [17] 10.3 µM | [18] 76.6 µM | [20] > 90.2 µM

COc1cccc(-c2cccc(SC)n2)n1
inactive: [1] 39.2 µM | [2] 19.1 µM | [4] 27.9 µM | [5] 30.5 µM | [6] 34.4 µM | [7] 40.7 µM | [8] 26.2 µM | [9] 56.5 µM | [10] 36.8 µM | [11] 36.7 µM | [12] 35.6 µM | [13] 60 µM | [14] 21.5 µM | [15] 17.7 µM | [16] 21 µM | [17] 23.8 µM | [18] 34 µM | [20] 32 µM

Cc1ccc(C(C2C(=O)N(C)C(=O)N(C)C2=O)C(F)(F)C(=O)N(C)C)cc1 (configuration not stated)
inactive: [1] > 100 µM | [2] > 100 µM | [3] > 100 µM | [4] > 100 µM | [5] > 100 µM | [6] > 100 µM | [7] > 100 µM | [9] > 100 µM | [11] > 100 µM | [12] > 100 µM | [13] > 100 µM | [15] > 100 µM | [16] > 100 µM | [17] > 100 µM | [18] > 100 µM | [20] > 100 µM
